Common to all, as to format: cell-based
The test system of one test is E. coli IMP-2. Briefly: MIC broth microdilution, recombinant E. coli. As to conditions: Escherichia coli, IMP2; IMP-2-like; TAN/XER fixed at 4 µg/mL, XER 8 µg/mL in MEM-XER; read-out: Minimal inhibitory concentration.
For test [1], the system named is Enterobacter hormaechei subsp. steigerwaltii SMART 398. Briefly: microbe, parasite or virus in culture. As to conditions: read-out: Minimal inhibitory concentration. As to the method: (§1) Most isolates and their respective β-lactamase content were characterized by whole-genome sequencing.
(§2) To assess the inhibitory potency of XER, susceptibility testing was performed by broth microdilution method, determining the minimal inhibitory concentrations (MICs) of different antibiotics or antibiotic plus β-lactamase inhibitor combinations, including cefepime (FEP), imipenem (IPM), meropenem (MEM), and their combinations with XER (FEP-XER, IPM-XER, and MEM-XER). All data obtained with XER-based combinations were compared with data with TAN-based combinations, FEP-TAN, IPM-TAN, and MEM-TAN ([16]). FEP was purchased from Sigma-Aldrich (Saint-Louis, USA), whereas MEM was from HuiChem (Shanghai, China). […] MICs were determined in triplicate in cation-adjusted Mueller-Hinton (MH) broth (Bio-Rad, Marnes-la-Coquette, France) according to the CLSI guidelines ([53]). The results were interpreted according to the decrease in MIC value for the same antibiotic or combination of the corresponding recombinant strain producing the MBL enzyme. […] In a recent phase I clinical evaluation, XER was combined with cefiderocol. However, as this latter β-lactam substrate is known to be poorly hydrolyzed by IMP enzymes, it was not considered for the evaluation of XER inhibitory activity in this study. Instead, carbapenems were used as a substrate to evaluate the β-lactamase IMP activity in the presence or absence of XER and TAN, as it was deemed more specific for the IMP carbapenemase activity.

Test [2] has as its system Klebsiella pneumoniae Kp 5 IMP. Briefly: microbe, parasite or virus in culture. Particulars: KP5IMP, read-out: Minimal inhibitory concentration. As to the method: as §1, §2
The test system of test [3] is Pseudomonas aeruginosa PA16. Briefly: microbe, parasite or virus in culture. As to conditions: IMP-29, TAN/XER fixed at 4 µg/mL, XER 8 µg/mL in MEM-XER, read-out: Minimal inhibitory concentration. As to the method:
as §1, §2

For test [4], the system named is Escherichia coli SMART 1132. Briefly: microbe, parasite or virus in culture. As to conditions: SMART1132, IMP-6, CTX-M-2, TAN/XER fixed at 4 µg/mL, XER 8 µg/mL in MEM-XER, read-out: Minimal inhibitory concentration. As to the method:
as §1, §2

Test [5] deals with Serratia marcescens SMART 2558. Briefly: microbe, parasite or virus in culture. As to conditions: SMART2558, IMP-8, CTX-M-3, TAN/XER fixed at 4 µg/mL, XER 8 µg/mL in MEM-XER, read-out: Minimal inhibitory concentration. As to the method: as §1, §2
The subject of the next test is Serratia marcescens SM1. Briefly: microbe, parasite or virus in culture. Particulars: IMP-11, TAN/XER fixed at 4 µg/mL, XER 8 µg/mL in MEM-XER, read-out: Minimal inhibitory concentration. As to the method:
as §1, §2

Test [6] concerns Klebsiella pneumoniae SMART 651. Briefly: microbe, parasite or virus in culture. Particulars: SMART651, read-out: Minimal inhibitory concentration. As to the method:
as §1, §2

Test [7] deals with Escherichia coli E. coli 7 IMP. Briefly: microbe, parasite or virus in culture. As to conditions: E.COLI7IMP, read-out: Minimal inhibitory concentration. As to the method:
as §1, §2

The test system of test [8] is Pseudomonas aeruginosa CC02-010. Briefly: microbe, parasite or virus in culture. Particulars: CC02010, IMP-7, TAN/XER fixed at 4 µg/mL, XER 8 µg/mL in MEM-XER, read-out: Minimal inhibitory concentration. As to the method: as §1, §2
The test system of test [9] is Pseudomonas aeruginosa PA12. Briefly: microbe, parasite or virus in culture. Particulars: IMP-13, TAN/XER fixed at 4 µg/mL, XER 8 µg/mL in MEM-XER, read-out: Minimal inhibitory concentration. As to the method:
as §1, §2

Test [10] deals with Klebsiella pneumoniae SMART 1131. Briefly: microbe, parasite or virus in culture. As to conditions: SMART1131, IMP-6, CTX-M-2, TAN/XER fixed at 4 µg/mL, XER 8 µg/mL in MEM-XER, read-out: Minimal inhibitory concentration. As to the method:
as §1, §2

The test system of test [11] is Enterobacter hormaechei subsp. steigerwaltii SMART 1234. Briefly: microbe, parasite or virus in culture. As to conditions: read-out: Minimal inhibitory concentration. As to the method:
as §1, §2

In test [12] the test system is Klebsiella pneumoniae SMART 875. Briefly: microbe, parasite or virus in culture. Particulars: SMART875, IMP-26, CTX-M-15, TEM-1 like, TAN/XER fixed at 4 µg/mL, XER 8 µg/mL in MEM-XER, read-out: Minimal inhibitory concentration. As to the method:
as §1, §2

The subject of another test is C. freundii SMART 315. Briefly: microbe, parasite or virus in culture. As to conditions: Citrobacter freundii, SMART315; IMP-4, CTX-M-9; TAN/XER fixed at 4 µg/mL, XER 8 µg/mL in MEM-XER; read-out: Minimal inhibitory concentration. As to the method: as §1, §2
Test [13] deals with Enterobacter xiangfangensis SMART 409. Briefly: microbe, parasite or virus in culture. Particulars: Enterobacter hormaechei, SMART409, read-out: Minimal inhibitory concentration. As to the method:
as §1, §2

Test [14] concerns Pseudomonas aeruginosa PA15. Briefly: microbe, parasite or virus in culture. As to conditions: IMP-19, TAN/XER fixed at 4 µg/mL, XER 8 µg/mL in MEM-XER, read-out: Minimal inhibitory concentration. As to the method: as §1, §2
Test [15] relates to Klebsiella pneumoniae SMART 1137. Briefly: microbe, parasite or virus in culture. As to conditions: SMART1137, read-out: Minimal inhibitory concentration. As to the method:
as §1, §2

Test [16] concerns Pseudomonas aeruginosa PA10. Briefly: microbe, parasite or virus in culture. Particulars: IMP-2, TAN/XER fixed at 4 µg/mL, XER 8 µg/mL in MEM-XER, read-out: Minimal inhibitory concentration. As to the method:
as §1, §2

For test [17], the system named is Enterobacter hormaechei subsp. oharae SMART 1260. Briefly: microbe, parasite or virus in culture. Particulars: read-out: Minimal inhibitory concentration. As to the method:
as §1, §2

Test [18] concerns Klebsiella pneumoniae SMART 878. Briefly: microbe, parasite or virus in culture. Particulars: for MIC: Klebsiella pneumoniae, SMART878, read-out: Minimal inhibitory concentration. As to the method:
as §1, §2

In test [19] the test system is Citrobacter freundii SMART 958. Briefly: microbe, parasite or virus in culture. Particulars: SMART958, IMP-1, OXA-142, TAN/XER fixed at 4 µg/mL, XER 8 µg/mL in MEM-XER, read-out: Minimal inhibitory concentration. As to the method:
as §1, §2

This is an account of results in publication PMC12217461 (Antimicrobial Agents and Chemotherapy, 2025).

`C[C@@H](O)[C@H]1C(=O)N2C(C(=O)O)=C(SCCN=CN)C[C@H]12` [IPM, imipenem]: the MIC was 0.5 µg/mL in the test with E. coli IMP-2; 0.5 µg/mL in [1]; ≤ 0.25 µg/mL in test [2]; 16 µg/mL in test [3]; ≤ 0.25 µg/mL in [4]; ≤ 0.25 µg/mL in test [5]. Moreover, the MIC with Serratia marcescens SM1 was ≤ 0.25 µg/mL; in [6], 1 µg/mL; in test [7], 0.5 µg/mL; in [8], 128 µg/mL; in test [9], 8 µg/mL; in [10], ≤ 0.25 µg/mL. Moreover, the MIC in test [11] was ≤ 0.25 µg/mL; in test [12] it was ≤ 0.25 µg/mL; with C. freundii SMART 315 it was ≤ 0.25 µg/mL; in [13], ≤ 0.25 µg/mL; in test [14] it was 256 µg/mL; in [15], 2 µg/mL. In addition, the MIC in [16] is 32 µg/mL; in [17], ≤ 0.25 µg/mL; in test [18] it was ≤ 0.25 µg/mL; in test [19] it was 0.5 µg/mL.
Regarding `CO/N=C(\C(=O)N[C@@H]1C(=O)N2C(C(=O)[O-])=C(C[N+]3(C)CCCC3)CS[C@H]12)c1csc(N)n1` [FEP, cefepime], the MIC in the test on E. coli IMP-2 worked out at 8 µg/mL; in test [1], 128 µg/mL; in test [2], 256 µg/mL; in test [3], 16 µg/mL; in test [4] it was 128 µg/mL; in [5], 32 µg/mL. Besides, the MIC in the test with Serratia marcescens SM1 is 4 µg/mL; in test [6], 64 µg/mL; in [7], > 256 µg/mL; in [8] it was > 256 µg/mL; in [9] it was 128 µg/mL; in test [10], 64 µg/mL. Also, the MIC is 8 µg/mL in [11]; 64 µg/mL in test [12]; 16 µg/mL in the test with C. freundii SMART 315; 4 µg/mL in test [13]; > 256 µg/mL in [14]; > 256 µg/mL in test [15]. The MIC in test [16] is > 256 µg/mL; in test [17], 32 µg/mL; in test [18] it was 256 µg/mL; in test [19], 32 µg/mL.
Regarding `C[C@@H](O)[C@H]1C(=O)N2C(C(=O)O)=C(S[C@@H]3CN[C@H](C(=O)N(C)C)C3)[C@H](C)[C@H]12` [MEM, meropenem], the MIC is 1 µg/mL with E. coli IMP-2; 0.5 µg/mL in test [1]; 0.5 µg/mL in [2]; 32 µg/mL in test [3]; 4 µg/mL in test [4]; 0.25 µg/mL in test [5]. The MIC is 2 µg/mL with Serratia marcescens SM1; 8 µg/mL in [6]; 1 µg/mL in test [7]; 256 µg/mL in [8]; 16 µg/mL in test [9]; 8 µg/mL in [10]. Further, the MIC in [11] was 0.5 µg/mL; in [12], 0.125 µg/mL; with C. freundii SMART 315, 2 µg/mL; in test [13], ≤ 0.125 µg/mL; in test [14], 64 µg/mL; in test [15] it was 128 µg/mL. The MIC in [16] was 32 µg/mL; in [17], 1 µg/mL; in test [18], 4 µg/mL; in [19], 4 µg/mL. Besides, in test [18] (IMP-26, CTX-M-15, OXA-1, TEM-1 like, TAN/XER fixed at 4 µg/mL, XER 8 µg/mL in MEM-XER), the Minimal inhibitory concentration worked out at 1 µg/mL.
